Measurements: publication PMC6576746, “Rational discovery of dual-indication multi-target PDE/Kinase inhibitor for precision anti-cancer therapy using structural systems pharmacology” (PLoS Computational Biology, 2019)

Columns and labels:
Assay in all cases: biochemical
Set-up in all cases: DiscoverX KinomeScan competition binding assay across human kinases; per cent of control at 10 and 100 uM
PIK3C2G = PIK3C2G (Homo sapiens, UniProt O75747); conditions: competition binding, % of control; read-out: Percent Control (100 uM Levosimendan)
Method in brief: (§1)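 KinomeScan competition binding was run across a human kinase panel at 10 μM and 100 μM levosimendan. Results are %control = (test − positive control)/(negative control − positive control) × 100.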

BRSK1 = BRSK1 (Homo sapiens, UniProt Q8TDC3); conditions: competition binding, % of control; read-out: Percent Control (100 uM Levosimendan)
Method in brief: as §1

p38-beta = molecular target: T1, p38-beta (Homo sapiens, UniProt Q15759); conditions: competition binding, % of control; read-out: Percent Control (100 uM Levosimendan)
T1 construct: gene MAPK11
Method in brief: as §1

PRP4 = molecular target: T2, PRP4 (Homo sapiens, UniProt Q13523); conditions: competition binding, % of control; read-out: Percent Control (100 uM Levosimendan)
T2 construct: gene PRPF4B
Method in brief: as §1

[1] = molecular target: T3, ABL1(Q252H)-phosphorylated (Homo sapiens, UniProt P00519, Q252H); conditions: competition binding, % of control; read-out: Percent Control (100 uM Levosimendan)
T3 construct: phosphorylated
Method in brief: as §1

TRKA = molecular target: T4, TRKA (Homo sapiens, UniProt P04629); conditions: competition binding, % of control; read-out: Percent Control (100 uM Levosimendan)
T4 construct: gene NTRK1
Method in brief: as §1

SRPK2 = SRPK2 (Homo sapiens, UniProt P78362); conditions: competition binding, % of control; read-out: Percent Control (100 uM Levosimendan)
Method in brief: as §1

ADCK3 = molecular target: T5, ADCK3 (Homo sapiens, UniProt Q8NI60); conditions: competition binding, % of control; read-out: Percent Control (100 uM Levosimendan)
T5 construct: gene COQ8A
Method in brief: as §1

BRAF(V600E) = BRAF(V600E) (Homo sapiens, UniProt P15056, V600E); conditions: competition binding, % of control; read-out: Percent Control (100 uM Levosimendan)
Method in brief: as §1

TGFBR1 = TGFBR1 (Homo sapiens, UniProt P36897); conditions: competition binding, % of control
Method in brief: as §1

PFTAIRE2 = molecular target: T6, PFTAIRE2 (Homo sapiens, UniProt Q96Q40); conditions: competition binding, % of control; read-out: Percent Control (100 uM Levosimendan)
T6 construct: gene CDK15
Method in brief: as §1

CHEK2 = CHEK2 (Homo sapiens, UniProt O96017); conditions: competition binding, % of control
Method in brief: as §1

PIP5K1A = PIP5K1A (Homo sapiens, UniProt Q99755); conditions: competition binding, % of control
Method in brief: as §1

[2] = molecular target: T7, ABL1(T315I)-nonphosphorylated (Homo sapiens, UniProt P00519, T315I); conditions: competition binding, % of control; read-out: Percent Control (100 uM Levosimendan)
T7 construct: nonphosphorylated
Method in brief: as §1

CDKL5 = CDKL5 (Homo sapiens, UniProt O76039); conditions: competition binding, % of control; read-out: Percent Control (100 uM Levosimendan)
Method in brief: as §1

DLK = molecular target: T8, DLK (Homo sapiens, UniProt Q12852); conditions: competition binding, % of control; read-out: Percent Control (100 uM Levosimendan)
T8 construct: gene MAP3K12
Method in brief: as §1

CAMKK1 = CAMKK1 (Homo sapiens, UniProt Q8N5S9); conditions: competition binding, % of control
Method in brief: as §1

TIE1 = TIE1 (Homo sapiens, UniProt P35590); conditions: competition binding, % of control; read-out: Percent Control (100 uM Levosimendan)
Method in brief: as §1

[3] = read-out: Percent Control (10 uM Levosimendan)
[4] = read-out: Percent Control (100 uM Levosimendan)

TGFBR1, sequence (P36897 whole entry): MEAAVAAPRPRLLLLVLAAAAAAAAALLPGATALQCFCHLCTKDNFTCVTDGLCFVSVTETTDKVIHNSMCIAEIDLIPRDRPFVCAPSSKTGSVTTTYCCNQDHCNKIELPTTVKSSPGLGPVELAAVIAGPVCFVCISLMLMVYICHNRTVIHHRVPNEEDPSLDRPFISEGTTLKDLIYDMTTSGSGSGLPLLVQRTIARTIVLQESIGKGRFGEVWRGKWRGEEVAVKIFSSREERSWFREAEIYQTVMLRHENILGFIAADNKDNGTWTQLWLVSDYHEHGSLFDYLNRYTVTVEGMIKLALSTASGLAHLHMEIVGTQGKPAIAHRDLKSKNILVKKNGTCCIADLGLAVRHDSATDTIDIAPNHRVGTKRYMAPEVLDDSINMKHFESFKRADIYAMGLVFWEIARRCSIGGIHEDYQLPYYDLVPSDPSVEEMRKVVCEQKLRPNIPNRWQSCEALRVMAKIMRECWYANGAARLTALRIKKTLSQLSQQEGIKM
CHEK2, sequence (O96017 whole entry): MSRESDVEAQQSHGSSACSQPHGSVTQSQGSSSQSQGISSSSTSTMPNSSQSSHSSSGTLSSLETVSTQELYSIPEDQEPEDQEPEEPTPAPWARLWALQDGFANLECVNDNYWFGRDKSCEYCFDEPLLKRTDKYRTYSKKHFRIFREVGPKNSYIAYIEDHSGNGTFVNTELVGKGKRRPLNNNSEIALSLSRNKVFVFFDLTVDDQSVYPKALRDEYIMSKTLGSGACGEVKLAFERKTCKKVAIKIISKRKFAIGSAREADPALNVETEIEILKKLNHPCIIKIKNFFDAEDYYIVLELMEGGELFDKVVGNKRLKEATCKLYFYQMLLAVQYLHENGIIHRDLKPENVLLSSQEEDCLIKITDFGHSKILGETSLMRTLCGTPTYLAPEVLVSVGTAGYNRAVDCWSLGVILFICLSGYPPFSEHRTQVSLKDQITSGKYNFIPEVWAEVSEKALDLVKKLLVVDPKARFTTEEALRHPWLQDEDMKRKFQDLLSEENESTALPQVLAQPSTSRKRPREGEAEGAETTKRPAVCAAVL
CAMKK1, sequence (Q8N5S9 whole entry): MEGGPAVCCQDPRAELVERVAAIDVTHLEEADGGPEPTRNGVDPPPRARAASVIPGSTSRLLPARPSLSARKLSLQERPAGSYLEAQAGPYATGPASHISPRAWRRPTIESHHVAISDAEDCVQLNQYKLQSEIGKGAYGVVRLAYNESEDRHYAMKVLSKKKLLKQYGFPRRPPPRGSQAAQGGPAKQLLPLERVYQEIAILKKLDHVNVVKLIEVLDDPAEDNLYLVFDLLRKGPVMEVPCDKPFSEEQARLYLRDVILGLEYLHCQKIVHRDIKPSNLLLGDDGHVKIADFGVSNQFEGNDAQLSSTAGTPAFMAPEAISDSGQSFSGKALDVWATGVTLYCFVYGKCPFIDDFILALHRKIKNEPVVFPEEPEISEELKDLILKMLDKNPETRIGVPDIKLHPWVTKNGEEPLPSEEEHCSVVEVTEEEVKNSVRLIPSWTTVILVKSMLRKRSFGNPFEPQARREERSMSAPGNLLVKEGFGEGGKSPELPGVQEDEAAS
PIP5K1A, sequence (Q99755 whole entry): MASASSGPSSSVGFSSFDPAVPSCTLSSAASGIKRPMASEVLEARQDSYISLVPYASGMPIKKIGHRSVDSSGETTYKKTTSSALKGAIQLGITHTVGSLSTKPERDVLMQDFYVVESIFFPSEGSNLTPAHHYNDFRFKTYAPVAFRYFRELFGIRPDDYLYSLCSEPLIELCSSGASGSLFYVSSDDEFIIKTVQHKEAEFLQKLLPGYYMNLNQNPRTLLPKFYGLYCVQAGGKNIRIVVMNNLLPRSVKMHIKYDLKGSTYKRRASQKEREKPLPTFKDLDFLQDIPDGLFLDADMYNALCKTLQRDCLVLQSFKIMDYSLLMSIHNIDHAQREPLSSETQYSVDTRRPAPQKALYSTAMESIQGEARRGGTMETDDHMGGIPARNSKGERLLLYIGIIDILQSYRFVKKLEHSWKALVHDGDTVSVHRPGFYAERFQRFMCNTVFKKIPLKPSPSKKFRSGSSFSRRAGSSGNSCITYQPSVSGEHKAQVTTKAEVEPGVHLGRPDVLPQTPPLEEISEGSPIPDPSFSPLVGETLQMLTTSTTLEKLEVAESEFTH
T4 sequence (P04629 whole entry): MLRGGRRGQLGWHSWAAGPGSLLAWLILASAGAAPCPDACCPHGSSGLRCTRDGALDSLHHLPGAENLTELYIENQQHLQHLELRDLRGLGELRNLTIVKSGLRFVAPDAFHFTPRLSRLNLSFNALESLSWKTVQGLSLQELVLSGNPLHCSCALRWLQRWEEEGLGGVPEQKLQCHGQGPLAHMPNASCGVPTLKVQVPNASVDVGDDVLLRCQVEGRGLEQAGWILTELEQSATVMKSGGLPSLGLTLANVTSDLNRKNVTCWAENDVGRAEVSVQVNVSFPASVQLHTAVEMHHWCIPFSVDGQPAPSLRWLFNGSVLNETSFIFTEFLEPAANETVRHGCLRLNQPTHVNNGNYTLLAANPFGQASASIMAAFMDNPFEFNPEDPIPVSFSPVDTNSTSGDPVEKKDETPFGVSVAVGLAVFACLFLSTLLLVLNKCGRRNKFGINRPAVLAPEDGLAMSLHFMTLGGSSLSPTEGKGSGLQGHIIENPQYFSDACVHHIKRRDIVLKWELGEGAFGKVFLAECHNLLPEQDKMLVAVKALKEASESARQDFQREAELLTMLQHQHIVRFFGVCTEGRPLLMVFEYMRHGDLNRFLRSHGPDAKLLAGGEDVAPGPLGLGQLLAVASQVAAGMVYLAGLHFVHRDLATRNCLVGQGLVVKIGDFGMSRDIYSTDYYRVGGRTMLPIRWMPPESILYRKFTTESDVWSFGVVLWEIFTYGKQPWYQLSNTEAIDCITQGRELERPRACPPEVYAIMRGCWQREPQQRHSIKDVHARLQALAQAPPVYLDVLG
SRPK2, sequence (P78362 whole entry): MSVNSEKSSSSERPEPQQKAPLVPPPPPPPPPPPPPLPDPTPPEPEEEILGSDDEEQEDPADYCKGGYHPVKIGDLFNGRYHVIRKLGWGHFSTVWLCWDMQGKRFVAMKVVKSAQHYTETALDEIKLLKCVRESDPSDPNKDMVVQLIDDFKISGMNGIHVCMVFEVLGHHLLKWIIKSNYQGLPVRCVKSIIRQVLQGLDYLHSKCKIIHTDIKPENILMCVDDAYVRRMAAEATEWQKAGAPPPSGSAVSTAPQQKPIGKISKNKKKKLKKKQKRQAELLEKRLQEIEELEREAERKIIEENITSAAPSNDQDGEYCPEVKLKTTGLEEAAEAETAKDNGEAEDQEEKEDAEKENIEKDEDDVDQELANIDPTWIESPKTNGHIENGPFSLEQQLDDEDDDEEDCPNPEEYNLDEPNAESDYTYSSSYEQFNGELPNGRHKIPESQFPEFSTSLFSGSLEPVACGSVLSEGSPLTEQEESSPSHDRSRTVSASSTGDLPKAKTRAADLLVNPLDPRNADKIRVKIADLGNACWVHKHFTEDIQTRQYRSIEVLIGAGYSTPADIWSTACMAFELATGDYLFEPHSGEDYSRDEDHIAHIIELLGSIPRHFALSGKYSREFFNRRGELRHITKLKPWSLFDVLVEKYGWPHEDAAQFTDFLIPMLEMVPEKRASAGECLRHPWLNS
TIE1, sequence (P35590 whole entry): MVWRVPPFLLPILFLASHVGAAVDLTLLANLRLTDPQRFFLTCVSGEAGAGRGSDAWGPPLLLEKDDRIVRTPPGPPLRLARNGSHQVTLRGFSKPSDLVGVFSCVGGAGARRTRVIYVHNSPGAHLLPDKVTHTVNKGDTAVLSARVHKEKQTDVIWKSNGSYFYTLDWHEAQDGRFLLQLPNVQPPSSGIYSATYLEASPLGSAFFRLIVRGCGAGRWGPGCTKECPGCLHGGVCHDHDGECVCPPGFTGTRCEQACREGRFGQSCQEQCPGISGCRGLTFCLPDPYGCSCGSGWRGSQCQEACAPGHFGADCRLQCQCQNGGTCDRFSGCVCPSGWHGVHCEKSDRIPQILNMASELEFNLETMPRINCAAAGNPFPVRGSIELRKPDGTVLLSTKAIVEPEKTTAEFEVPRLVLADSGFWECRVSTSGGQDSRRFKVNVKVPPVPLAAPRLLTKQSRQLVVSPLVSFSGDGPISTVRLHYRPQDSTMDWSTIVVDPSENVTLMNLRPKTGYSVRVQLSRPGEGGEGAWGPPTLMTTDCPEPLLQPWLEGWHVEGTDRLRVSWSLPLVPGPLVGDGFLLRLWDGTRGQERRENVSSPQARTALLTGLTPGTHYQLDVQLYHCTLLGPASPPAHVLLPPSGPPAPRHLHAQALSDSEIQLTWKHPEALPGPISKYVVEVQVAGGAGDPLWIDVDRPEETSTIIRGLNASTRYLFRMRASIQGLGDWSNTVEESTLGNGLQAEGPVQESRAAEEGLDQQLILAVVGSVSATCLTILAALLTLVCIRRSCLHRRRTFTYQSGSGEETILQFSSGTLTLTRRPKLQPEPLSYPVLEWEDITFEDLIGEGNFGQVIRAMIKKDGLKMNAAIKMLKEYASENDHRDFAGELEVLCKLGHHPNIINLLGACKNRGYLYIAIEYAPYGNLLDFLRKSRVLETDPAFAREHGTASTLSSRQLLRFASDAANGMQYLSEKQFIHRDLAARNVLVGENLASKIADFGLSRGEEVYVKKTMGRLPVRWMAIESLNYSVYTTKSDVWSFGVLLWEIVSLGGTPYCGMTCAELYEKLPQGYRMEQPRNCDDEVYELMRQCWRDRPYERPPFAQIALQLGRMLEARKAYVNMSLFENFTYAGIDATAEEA

## C[C@@H]1CC(=O)NN=C1c1ccc(NN=C(C#N)C#N)cc1 [levosimendan]
PIK3C2G
  remaining binding at 100 µM: 100%
BRSK1
  remaining binding at 100 µM: 100%
p38-beta
  remaining binding at 100 µM: 94%
PRP4
  remaining binding at 100 µM: 100%
[1]
  remaining binding at 100 µM: 68%
TRKA
  remaining binding at 100 µM: 65%
SRPK2
  remaining binding at 100 µM: 100%
ADCK3
  remaining binding at 100 µM: 57%
BRAF(V600E)
  remaining binding at 100 µM: 78%
TGFBR1; [3]
  remaining binding at 10 µM: 89%
TGFBR1; [4]
  remaining binding at 100 µM: 48%
PFTAIRE2
  remaining binding at 100 µM: 85%
CHEK2; [3]
  remaining binding at 10 µM: 41%
CHEK2; [4]
  remaining binding at 100 µM: 0.65%
PIP5K1A; [3]
  remaining binding at 10 µM: 22%
PIP5K1A; [4]
  remaining binding at 100 µM: 6.2%
[2]
  remaining binding at 100 µM: 100%
CDKL5
  remaining binding at 100 µM: 94%
DLK
  remaining binding at 100 µM: 62%
CAMKK1; [3]
  remaining binding at 10 µM: 82%
CAMKK1; [4]
  remaining binding at 100 µM: 51%
TIE1
  remaining binding at 100 µM: 100%
